# Results: patent US7166744B2, “Retinoid derivatives and methods for producing said compounds and anti-cancer pharmaceutical composition comprising said compounds” (Chebigen Co., Ltd., priority 2001, dated 2007)
# Experiments:
# Format in all cases: cell-based
# various cancer cells = test: MTT proliferation assay, summary over various cancer cells; conditions: Table 2
# Experimental: The effects of test compounds on proliferation of various cancer cells was examined by 3-(4,5-dimethylthiazol-2-yl)-2,5-diphenyltetrazolium bromide (MTT, Sigma) assay in a dose dependent manner. In the MTT assay, colon, liver, cervix, ovary, and breast cancer cell lines were treated with test compounds at various concentrations. Living cancer cells reduce MTT to dark blue MTT formazan that would be measured by absorbance.
# Colon cancer cells, HCT116, DLD-1 and HT29, cervix cancer cells, HeLa and CaSki, ovary cancer cells, SKOV-3, 2774 and OVCAR-3, liver cancer cells, SK-Hep-1, PLCPRF5 and HepG2, and breast cancer cells, ZR75-1 and MDA-MB 231 were seeded at an initial density of 3000 cells per well in 96-well plates. After attachment of cells to the walls of the wells, the medium containing fresh retinoid was treated with various concentrations (0.5 μM, 1 μM, 2.5 μM, 5 μM, 10 μM) for 48 hours. 50 μl of MTT solution (2 mg/ml in PBS) was added to cell culture media. The reaction micture was incubated at 37° C. in a 5% CO2 atmosphere for 4 hours. The supernatant was removed and 150 μl of DMSO was added. The optical density was measured spectrophotometrically at 550 nm. […] For other retinoid derivatives according to the present invention, absorbances were measured by this procedure and IC50 values, concentrations required for 50% growth inhibition, were determined.
# MMP-3 mRNA expression = test: RT-PCR of MMP-3 mRNA in HCT116; conditions: HCT116, 1 μM, 36 hours
# Experimental: Previously, it was shown that the synthetic retinoid derivatives inhibit the transcriptional activity of AP-1. Also, it is well known that MMP (matrix metalloproteinase), a main target gene of AP-1 is involved in metastasis of cancer cells. Therefore, the inhibitive effects of the retinoid derivatives on metastasis of cancer was examined by RT-PCR analysis. Colon cancer HCT116 cells were treated with 1 μM retinoid for 36 hours. RNA was isolated from the cells and mRNA expression levels of MMP-1, -2 and -3 were analyzed by RT-PCR. […] As the control, GAPDH was used and it was confirmed that its expression was not affected by retinoid. Meanwhile, the expression level of MMP-3 was affected weakly by KCBG40, intermediately by KCBG41 but strongly by KCBG10 (FIG. 9).
# cancer cells = test: Acridine orange / ethidium bromide double staining; conditions: 10 μM, 96 hours
# From the text: Therefore, the anti-proliferation effect of KCBG60 is due to the induction of apoptosis.
Compound,effect on MMP-3 mRNA expression level (MMP-3 mRNA expression),acridine orange / ethidium bromide staining colour of cells (cancer cells),other results
"CC1=C(/C=C/C(C)=C/C=C/C(C)=C/C(=O)O)C(C)(C)CCC1 [ATRA, All-trans-retinoic acid, reference compound]",–,–,anti-cancer activity in cells other than HepG (various cancer cells): very a low anti-cancer activity
"CCCC(=O)Oc1cc(O)ccc1NC(=O)/C=C(C)/C=C/C=C(C)/C=C/C1=C(C)CCCC1(C)C [KCBG10, 2.2-[(2E,4E,6E,8E)-3,7-Dimethyl-9-(2,6,6-trimethylcyclohex-1-enyl)-nona-2,4,6,8-tetraenoylamino]-5-hydroxyphenylbutanoate]",strongly,–,–
"CCCC(=O)Nc1cc(NC(=O)/C=C(C)/C=C/C=C(C)/C=C/C2=C(C)CCCC2(C)C)ccc1O [KCBG41, (2E,4E,6E,8E)-[3,7-dimethyl-9-(2,6,6-trimethylcyclohex-1-enyl)-nona-2,4,6,8-tetraenoylamino]-(3-butyrylamino-4-hydroxy)phenylamide]",intermediately,–,–
CCCC(=O)Oc1ccc(NC(=O)/C=C(C)/C=C/C=C(C)/C=C/C2=C(C)CCCC2(C)C)cc1 [KCBG60],–,cells were stained with orange color,–
phenyl butylate,–,cells remained normal green color,–
